Experimental data from PubChem BioAssay AID318 (DTP/NCI, 2004).
Several values for one entry are separate records, joined by “and”; a condition that tells them apart may be missing. Equal entries are not always repeated. Toxic doses and inconclusive results are not listed. Rule for the calls: active = survival T/C of 150% or more; inactive = T/C below 125% in these data. Starred links: 1 amine or outer side, 2 acyl side, 3 side chain; linkers in the order of their positions; H or OH if unused. Positions of bridges follow the written chain, without caps; N, C: chain ends. Non-standard residues stand in square brackets, D forms with d. Residues, ends and D or L forms follow the SMILES beside them. Chains are numbered I, II in the order given. Actinocin(9to1) = Cc1c2oc3c(C)ccc(C(=O)[*:1])c3nc-2c(C(=O)[*:2])c(N)c1=O; NMeV = CN[CH](C(=O)O)C(C)C; Aze = O=C(O)[CH]1CCN1; Sar = CNCC(=O)O

Test system: BDF1 mice, P815 leukemia ip, survival T/C
Test: NCI In Vivo Anticancer Drug Screen. Data for tumor model P815 Mast Cell Leukemia (Ascitic) (intraperitoneal) in B6D2F1 (BDF1) mice
Settings: higher = longer survival
Description: The antitumor activity of compounds was measured in mice bearing transplantable tumors. Survival or tumor size were measured and the results are expressed as the measurement made in the treated group (T) divided by the measurement made in the vehicle treated control group (C). The tumor model used in this assay is P815 Mast Cell Leukemia (Ascitic) (intraperitoneal) in B6D2F1 (BDF1) mice

[1] = endpoint: survival time, mean or median, dose: 31.3 mg/kg/injection, schedule: Q01DX010 (ip), vehicle: saline
[2] = endpoint: survival time, mean or median, dose: 62.5 mg/kg/injection, schedule: Q01DX010 (ip), vehicle: saline
[3] = endpoint: survival time, mean or median, dose: 125.0 mg/kg/injection, schedule: Q01DX010 (ip), vehicle: saline
[4] = endpoint: survival time, mean or median, dose: 250.0 mg/kg/injection, schedule: Q01DX010 (ip), vehicle: saline
[5] = endpoint: survival time, mean or median, dose: 25.0 mg/kg/injection, schedule: Q01DX010 (ip), vehicle: saline
[6] = endpoint: survival time, mean or median, dose: 50.0 mg/kg/injection, schedule: Q01DX010 (ip), vehicle: saline
[7] = endpoint: survival time, mean or median, dose: 40.0 mg/kg/injection, schedule: Q01DX010 (ip), vehicle: saline

Measured: T/C

CC(=O)O[C@]1(C(C)=O)CC[C@H]2[C@@H]3C[C@H](C)C4=CC(=O)C=C[C@]4(C)[C@@]3(F)[C@@H](O)C[C@@]21C
inactive: endpoint: survival time, mean or median, dose: 3.13 mg/kg/injection, schedule: Q01DX010 (sc), vehicle: steriod suspending solution 100 % of control | endpoint: survival time, mean or median, dose: 6.25 mg/kg/injection, schedule: Q01DX010 (sc), vehicle: steriod suspending solution 100 % of control | endpoint: survival time, mean or median, dose: 12.5 mg/kg/injection, schedule: Q01DX010 (sc), vehicle: steriod suspending solution 100 % of control and 106 % of control | endpoint: survival time, mean or median, dose: 25.0 mg/kg/injection, schedule: Q01DX010 (sc), vehicle: steriod suspending solution 100 % of control | endpoint: survival time, mean or median, dose: 100.0 mg/kg/injection, schedule: Q01DX010 (sc), vehicle: steriod suspending solution 93 % of control

O=C1CCC(N2C(=O)c3ccccc3C2=O)C(=O)N1 (stereo not given)
inactive: [1] 104 % of control | [2] 100 % of control | [3] 96 % of control | [4] 96 % of control

Cc1c2oc3c(C)ccc(C(=O)NC4C(=O)NC(C(C)C)C(=O)N5CCC5C(=O)N(C)CC(=O)N(C)C(C(C)C)C(=O)OC4C)c3nc-2c(C(=O)NC2C(=O)NC(C(C)C)C(=O)N3CCC3C(=O)N(C)CC(=O)N(C)C(C(C)C)C(=O)OC2C)c(N)c1=O (stereo not given) (I: TV[Aze][Sar][NMeV] / II: TV[Aze][Sar][NMeV]; ester I:1-I:C, II:1-II:C; linker I:N-II:N via Actinocin(9to1); configuration not given here)
inactive: endpoint: median survival time, dose: 270.0 micrograms/kg/injection, schedule: Q04DX003 (ip), vehicle: saline + alcohol 118 % of control | endpoint: median survival time, dose: 450.0 micrograms/kg/injection, schedule: Q01DX001 (ip), vehicle: saline + alcohol 118 % of control | endpoint: median survival time, dose: 450.0 micrograms/kg/injection, schedule: Q04DX003 (ip), vehicle: saline + alcohol 113 % of control | endpoint: median survival time, dose: 750.0 micrograms/kg/injection, schedule: Q01DX001 (ip), vehicle: saline + alcohol 121 % of control | endpoint: median survival time, dose: 750.0 micrograms/kg/injection, schedule: Q04DX003 (ip), vehicle: saline + alcohol 97 % of control | endpoint: median survival time, dose: 1250.0 micrograms/kg/injection, schedule: Q01DX001 (ip), vehicle: saline + alcohol 105 % of control | endpoint: median survival time, dose: 1250.0 micrograms/kg/injection, schedule: Q04DX003 (ip), vehicle: saline + alcohol 92 % of control

Nc1ncnc2[nH]ncc12
inactive: endpoint: survival time, mean or median, dose: 1.5 mg/kg/injection, schedule: Q01DX010 (ip), vehicle: saline 100 % of control | endpoint: survival time, mean or median, dose: 3.0 mg/kg/injection, schedule: Q01DX010 (ip), vehicle: saline 100 % of control | endpoint: survival time, mean or median, dose: 6.0 mg/kg/injection, schedule: Q01DX010 (ip), vehicle: saline 100 % of control and 104 % of control | endpoint: survival time, mean or median, dose: 12.0 mg/kg/injection, schedule: Q01DX010 (ip), vehicle: saline 100 % of control and 109 % of control

C=CCSc1nc(N)nc2nc[nH]c12
inactive: endpoint: survival time, mean or median, dose: 15.0 mg/kg/injection, schedule: Q01DX015 (ip), vehicle: other 113 % of control | endpoint: survival time, mean or median, dose: 16.0 mg/kg/injection, schedule: Q01DX015 (ip), vehicle: other 109 % of control | endpoint: survival time, mean or median, dose: 31.0 mg/kg/injection, schedule: Q01DX015 (ip), vehicle: other 96 % of control and 107 % of control | endpoint: survival time, mean or median, dose: 62.0 mg/kg/injection, schedule: Q01DX015 (ip), vehicle: other 106 % of control and 112 % of control | endpoint: survival time, mean or median, dose: 125.0 mg/kg/injection, schedule: Q01DX015 (ip), vehicle: other 89 % of control and 91 % of control

CCN(CC)CCNc1ccc(C)c2sc3ccccc3c(=O)c12
inactive: [5] 107 % of control and 113 % of control | [6] 118 % of control and 123 % of control

CCn1cnc2c(=S)nc[nH]c21
inactive: endpoint: survival time, mean or median, dose: 15.6 mg/kg/injection, schedule: Q01DX010 (ip), vehicle: saline 94 % of control | [1] 98 % of control and 102 % of control | [2] 97 % of control

CS(=O)(=O)OCCCl
inactive: endpoint: survival time, mean or median, dose: 18.8 mg/kg/injection, schedule: Q01DX010 (ip), vehicle: saline 100 % of control and 105 % of control | endpoint: survival time, mean or median, dose: 37.5 mg/kg/injection, schedule: Q01DX010 (ip), vehicle: saline 100 % of control | endpoint: survival time, mean or median, dose: 75.0 mg/kg/injection, schedule: Q01DX010 (ip), vehicle: saline 100 % of control and 111 % of control

COc1ccc2c(c1OC)C(=O)O[C@@H]2[C@H]1c2c(cc3c(c2OC)OCO3)CCN1C
inactive: endpoint: survival time, mean or median, dose: 62.5 mg/kg/injection, schedule: Q01DX015 (ip), vehicle: carboxymethylcellulose (CMC) 101 % of control | endpoint: survival time, mean or median, dose: 125.0 mg/kg/injection, schedule: Q01DX015 (ip), vehicle: carboxymethylcellulose (CMC) 95 % of control | endpoint: survival time, mean or median, dose: 250.0 mg/kg/injection, schedule: Q01DX015 (ip), vehicle: carboxymethylcellulose (CMC) 96 % of control | endpoint: survival time, mean or median, dose: 500.0 mg/kg/injection, schedule: Q01DX015 (ip), vehicle: carboxymethylcellulose (CMC) 93 % of control

CC1CCOS(=O)O1 (stereo not given)
inactive: endpoint: survival time, mean or median, dose: 10.0 mg/kg/injection, schedule: Q01DX010 (ip), vehicle: saline 100 % of control | endpoint: survival time, mean or median, dose: 20.0 mg/kg/injection, schedule: Q01DX010 (ip), vehicle: saline 100 % of control | [7] 100 % of control | endpoint: survival time, mean or median, dose: 80.0 mg/kg/injection, schedule: Q01DX010 (ip), vehicle: saline 88 % of control

S=P(N1CCOCC1)(N1CC1)N1CC1
inactive: endpoint: survival time, mean or median, dose: 2.5 mg/kg/injection, schedule: Q01DX010 (ip), vehicle: saline 97 % of control and 100 % of control | [7] 100 % of control

CS(=O)(=O)OCC(O)C(O)C(O)C(O)COS(C)(=O)=O (stereo not given)
inactive: [5] 100 % of control | [6] 100 % of control and 112 % of control | endpoint: survival time, mean or median, dose: 100.0 mg/kg/injection, schedule: Q01DX010 (ip), vehicle: saline 95 % of control and 112 % of control | endpoint: survival time, mean or median, dose: 200.0 mg/kg/injection, schedule: Q01DX010 (ip), vehicle: saline 95 % of control and 112 % of control | endpoint: survival time, mean or median, dose: 400.0 mg/kg/injection, schedule: Q01DX010 (ip), vehicle: saline 112 % of control

O=C(Nc1ccc(C2=NCCN2)cc1)c1ccc(NC(=O)c2ccc(C3=NCCN3)cc2)cc1
inactive: endpoint: survival time, mean or median, dose: 18.0 mg/kg/injection, schedule: Q01DX010 (ip), vehicle: saline 112 % of control | endpoint: survival time, mean or median, dose: 27.0 mg/kg/injection, schedule: Q01DX010 (ip), vehicle: saline 116 % of control

N#C[C@@H]1C2C=CC(CC2)[C@H]1C#N
inactive: endpoint: survival time, mean or median, dose: 0.25 mg/kg/injection, schedule: Q01DX010 (ip), vehicle: saline 100 % of control | endpoint: survival time, mean or median, dose: 0.5 mg/kg/injection, schedule: Q01DX010 (ip), vehicle: saline 100 % of control and 105 % of control | endpoint: survival time, mean or median, dose: 1.0 mg/kg/injection, schedule: Q01DX010 (ip), vehicle: saline 100 % of control | endpoint: survival time, mean or median, dose: 2.0 mg/kg/injection, schedule: Q01DX010 (ip), vehicle: saline 88 % of control and 100 % of control

CCOC(N)=O
inactive: [3] 100 % of control | [4] 100 % of control and 118 % of control | endpoint: survival time, mean or median, dose: 500.0 mg/kg/injection, schedule: Q01DX010 (ip), vehicle: saline 100 % of control and 104 % of control

Nc1ccc(OC(=O)Oc2ccc(N)cc2)cc1
inactive: endpoint: survival time, mean or median, dose: 25.0 mg/kg/injection, schedule: Q01DX015 (ip), vehicle: saline 97 % of control | endpoint: survival time, mean or median, dose: 50.0 mg/kg/injection, schedule: Q01DX015 (ip), vehicle: saline 102 % of control | endpoint: survival time, mean or median, dose: 100.0 mg/kg/injection, schedule: Q01DX015 (ip), vehicle: saline 108 % of control | endpoint: survival time, mean or median, dose: 200.0 mg/kg/injection, schedule: Q01DX015 (ip), vehicle: saline 104 % of control

CS(=O)(=O)OCCCCOS(C)(=O)=O
inactive: endpoint: survival time, mean or median, dose: 6.25 mg/kg/injection, schedule: Q01DX010 (ip), vehicle: saline 104 % of control and 118 % of control | endpoint: survival time, mean or median, dose: 12.5 mg/kg/injection, schedule: Q01DX010 (ip), vehicle: saline 86 % of control | [5] 86 % of control and 95 % of control | [6] 86 % of control and 95 % of control
